One block for each compound: values may come before it.
What was measured:
Type in all cases: in vivo
rice = assay: post-emergence stage experiment, crop (Table 1); details: post-emergence spray at 4-5 leaf stage, 250 g/ha active ingredient with 450 kg/ha water, rated after 3 weeks in greenhouse
Summary of the method: (§1)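 Weeds and crops grown in soil-filled pots in a greenhouse were sprayed at the 4-5 leaf stage (2-3 weeks after sowing). Compounds were applied in acetone with tween 80, diluted in water. After 3 weeks' culture, growth control was scored as fresh weight control rate.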

wheat [1] = assay: wheat field test, crop selectivity, greenhouse spray at 4 leaf stage; details: sprayed at 4 leaf stage, 4 weeks after treatment
Method: (§2) The activity level standard of harmful plant destruction (i.e. growth control rate) is as follows:
(§3) The above described growth control rate is fresh weight control rate.
(§4) The seeds of alopecurus japonicas, flixweed, shepherd's purse, corn gromwell, chickweed, beckmannia syzigachne, and annual ryegrass and wheat seeds were put into a plastic pot loaded with soil, and then covered with 0.5-2 cm soil, the seeds were allowed to grow in good greenhouse environment. The test plants were treated at 4 leaf stage 2-3 weeks after sowing. The test compounds of the present invention were dissolved in acetone respectively, then added with methyl oleate emulsion and diluted by certain amount of water to certain concentration. The solution was sprayed to the plant with a sprayer. Then the plants were cultured for 4 weeks in greenhouse.

alopecurus japonicas = assay: wheat field resistant weed control, greenhouse spray at 4 leaf stage; set-up: key: Level 10: completely dead; Level 9: above 95% growth control rate; Level 8: above 90% growth control rate; Level 7: above 80% growth control rate; Level 6: above 70% growth control rate; Level 5: above 60% growth control rate; Level 4: above 50% growth control rate; Level 3: above 20% growth control rate; Level 2: 5%-20% growth control rate; Level 1: below 5% growth control rate; details: sprayed at 4 leaf stage, 4 weeks after treatment, resistant to ALS and ACCase inhibitor herbicides
Method: as §2, §3, §4

bidens bipinnata = assay: weed control effect in post-emergence stage (Table 1); set-up: key: Level 10: completely dead; Level 9: above 95% growth control rate; Level 8: above 90% growth control rate; Level 7: above 80% growth control rate; Level 6: above 70% growth control rate; Level 5: above 60% growth control rate; Level 4: above 50% growth control rate; Level 3: above 20% growth control rate; Level 2: 5%-20% growth control rate; Level 1: below 5% growth control rate; details: post-emergence spray at 4-5 leaf stage, 250 g/ha active ingredient with 450 kg/ha water, rated after 3 weeks in greenhouse
Summary of the method: as §1

echinochloa = assay: as above; set-up: key: Level 10: completely dead; Level 9: above 95% growth control rate; Level 8: above 90% growth control rate; Level 7: above 80% growth control rate; Level 6: above 70% growth control rate; Level 5: above 60% growth control rate; Level 4: above 50% growth control rate; Level 3: above 20% growth control rate; Level 2: 5%-20% growth control rate; Level 1: below 5% growth control rate; details: post-emergence spray at 4-5 leaf stage, 250 g/ha active ingredient with 450 kg/ha water, rated after 3 weeks in greenhouse
Summary of the method: as §1

Indian mallow = assay: as above; set-up: key: Level 10: completely dead; Level 9: above 95% growth control rate; Level 8: above 90% growth control rate; Level 7: above 80% growth control rate; Level 6: above 70% growth control rate; Level 5: above 60% growth control rate; Level 4: above 50% growth control rate; Level 3: above 20% growth control rate; Level 2: 5%-20% growth control rate; Level 1: below 5% growth control rate; details: post-emergence spray at 4-5 leaf stage, 250 g/ha active ingredient with 450 kg/ha water, rated after 3 weeks in greenhouse
Summary of the method: as §1

foxtail = assay: as above; set-up: key: Level 10: completely dead; Level 9: above 95% growth control rate; Level 8: above 90% growth control rate; Level 7: above 80% growth control rate; Level 6: above 70% growth control rate; Level 5: above 60% growth control rate; Level 4: above 50% growth control rate; Level 3: above 20% growth control rate; Level 2: 5%-20% growth control rate; Level 1: below 5% growth control rate; details: post-emergence spray at 4-5 leaf stage, 250 g/ha active ingredient with 450 kg/ha water, rated after 3 weeks in greenhouse
Summary of the method: as §1

rorippa indica = assay: as above; set-up: key: Level 10: completely dead; Level 9: above 95% growth control rate; Level 8: above 90% growth control rate; Level 7: above 80% growth control rate; Level 6: above 70% growth control rate; Level 5: above 60% growth control rate; Level 4: above 50% growth control rate; Level 3: above 20% growth control rate; Level 2: 5%-20% growth control rate; Level 1: below 5% growth control rate; details: post-emergence spray at 4-5 leaf stage, 250 g/ha active ingredient with 450 kg/ha water, rated after 3 weeks in greenhouse
Summary of the method: as §1

crab grass = assay: as above; set-up: key: Level 10: completely dead; Level 9: above 95% growth control rate; Level 8: above 90% growth control rate; Level 7: above 80% growth control rate; Level 6: above 70% growth control rate; Level 5: above 60% growth control rate; Level 4: above 50% growth control rate; Level 3: above 20% growth control rate; Level 2: 5%-20% growth control rate; Level 1: below 5% growth control rate; details: post-emergence spray at 4-5 leaf stage, 250 g/ha active ingredient with 450 kg/ha water, rated after 3 weeks in greenhouse
Summary of the method: as §1

wheat [2] = assay: post-emergence stage experiment, crop (Table 1); details: post-emergence spray at 4-5 leaf stage, 250 g/ha active ingredient with 450 kg/ha water, rated after 3 weeks in greenhouse
Summary of the method: as §1

corn = assay: post-emergence stage experiment, crop (Table 1); details: post-emergence spray at 4-5 leaf stage, 250 g/ha active ingredient with 450 kg/ha water, rated after 3 weeks in greenhouse
Summary of the method: as §1

effect on crop, Wheat (level) (wheat [2]): 0
SMILES: COC(=O)Oc1c(C(=O)c2ccc(C(F)(F)F)c(N3CCCC3=O)c2Cl)c(C)nn1C [Compound 020]
effect on crop, Rice (level) (rice): 8 (Level 8: above 90% growth control rate)
Wheat (activity level, crop damage) (wheat [1]; 2 g/mu): 1 (Level 1: below 5% growth control rate)
Wheat (activity level, crop damage) (wheat [1]; 4 g/mu): 3 (Level 3: above 20% growth control rate)
Wheat (activity level, crop damage) (wheat [1]; 8 g/mu): 3 (Level 3: above 20% growth control rate)
Wheat (activity level, crop damage) (wheat [1]; 16 g/mu): 4 (Level 4: above 50% growth control rate)
Wheat (activity level, crop damage) (wheat [1]; 32 g/mu): 4 (Level 4: above 50% growth control rate)
Alopecurus japonicas weed controlling effect (activity level) (alopecurus japonicas; 1 g/mu): 1 (Level 1: below 5% growth control rate)
Alopecurus japonicas weed controlling effect (activity level) (alopecurus japonicas; 2 g/mu): 6 (Level 6: above 70% growth control rate)
Alopecurus japonicas weed controlling effect (activity level) (alopecurus japonicas; 4 g/mu): 6 (Level 6: above 70% growth control rate)
Alopecurus japonicas weed controlling effect (activity level) (alopecurus japonicas; 8 g/mu): 8 (Level 8: above 90% growth control rate)
weed control effect, Bidens bipinnata (level) (bidens bipinnata): 9 (Level 9: above 95% growth control rate)
weed control effect, Echinochloa (level) (echinochloa): 10
weed control effect, Indian mallow (level) (Indian mallow): 10
weed control effect, Green foxtail (level) (foxtail): 10
weed control effect, Rorippa indica (level) (rorippa indica): 9 (Level 9: above 95% growth control rate)
weed control effect, Crab grass (level) (crab grass): 10

SMILES: CCOc1c(C(=O)Oc2c(C(=O)c3ccc(C(F)(F)F)c(N4CCCC4=O)c3Cl)c(C)nn2C)cnn1C [Compound 021]
effect on crop, Rice (level) (rice): 5 (Level 5: above 60% growth control rate)
Wheat (activity level, crop damage) (wheat [1]; 2 g/mu): 0
Wheat (activity level, crop damage) (wheat [1]; 4 g/mu): 1 (Level 1: below 5% growth control rate)
Wheat (activity level, crop damage) (wheat [1]; 8 g/mu): 4 (Level 4: above 50% growth control rate)
Wheat (activity level, crop damage) (wheat [1]; 16 g/mu): 4 (Level 4: above 50% growth control rate)
Wheat (activity level, crop damage) (wheat [1]; 32 g/mu): 4 (Level 4: above 50% growth control rate)
Alopecurus japonicas weed controlling effect (activity level) (alopecurus japonicas; 1 g/mu): 2 (Level 2: 5%-20% growth control rate)
Alopecurus japonicas weed controlling effect (activity level) (alopecurus japonicas; 2 g/mu): 6 (Level 6: above 70% growth control rate)
Alopecurus japonicas weed controlling effect (activity level) (alopecurus japonicas; 4 g/mu): 10
Alopecurus japonicas weed controlling effect (activity level) (alopecurus japonicas; 8 g/mu): 10
weed control effect, Echinochloa (level) (echinochloa): 6 (Level 6: above 70% growth control rate)
weed control effect, Indian mallow (level) (Indian mallow): 9 (Level 9: above 95% growth control rate)
weed control effect, Green foxtail (level) (foxtail): 10
weed control effect, Crab grass (level) (crab grass): 7 (Level 7: above 80% growth control rate)
effect on crop, Wheat (level) (wheat [2]): 3 (Level 3: above 20% growth control rate)
effect on crop, Corn (level) (corn): 3 (Level 3: above 20% growth control rate)

SMILES: CCn1nc(C2CC2)c(C(=O)c2ccc(C(F)(F)F)c(N3CCCCC3=O)c2Cl)c1OC(=O)c1cn(C)nc1C [Compound 115]
effect on crop, Rice (level) (rice): 8 (Level 8: above 90% growth control rate)
Wheat (activity level, crop damage) (wheat [1]; 2 g/mu): 0
Wheat (activity level, crop damage) (wheat [1]; 4 g/mu): 1 (Level 1: below 5% growth control rate)
Wheat (activity level, crop damage) (wheat [1]; 8 g/mu): 3 (Level 3: above 20% growth control rate)
Wheat (activity level, crop damage) (wheat [1]; 16 g/mu): 4 (Level 4: above 50% growth control rate)
Wheat (activity level, crop damage) (wheat [1]; 32 g/mu): 4 (Level 4: above 50% growth control rate)
Alopecurus japonicas weed controlling effect (activity level) (alopecurus japonicas; 1 g/mu): 4 (Level 4: above 50% growth control rate)
Alopecurus japonicas weed controlling effect (activity level) (alopecurus japonicas; 2 g/mu): 6 (Level 6: above 70% growth control rate)
Alopecurus japonicas weed controlling effect (activity level) (alopecurus japonicas; 4 g/mu): 10
Alopecurus japonicas weed controlling effect (activity level) (alopecurus japonicas; 8 g/mu): 10
weed control effect, Bidens bipinnata (level) (bidens bipinnata): 6 (Level 6: above 70% growth control rate)
weed control effect, Echinochloa (level) (echinochloa): 9 (Level 9: above 95% growth control rate)
weed control effect, Indian mallow (level) (Indian mallow): 10
weed control effect, Green foxtail (level) (foxtail): 10
weed control effect, Rorippa indica (level) (rorippa indica): 10
weed control effect, Crab grass (level) (crab grass): 2 (Level 2: 5%-20% growth control rate)
effect on crop, Wheat (level) (wheat [2]): 1 (Level 1: below 5% growth control rate)
effect on crop, Corn (level) (corn): 3 (Level 3: above 20% growth control rate)

SMILES: CCOc1c(C(=O)Oc2c(C(=O)c3ccc(C(F)(F)F)c(N4CCCC4=O)c3Cl)c(C3CC3)nn2C)cnn1C [Compound 026]
effect on crop, Rice (level) (rice): 8 (Level 8: above 90% growth control rate)
Wheat (activity level, crop damage) (wheat [1]; 2 g/mu): 1 (Level 1: below 5% growth control rate)
Wheat (activity level, crop damage) (wheat [1]; 4 g/mu): 3 (Level 3: above 20% growth control rate)
Wheat (activity level, crop damage) (wheat [1]; 8 g/mu): 8 (Level 8: above 90% growth control rate)
Wheat (activity level, crop damage) (wheat [1]; 16 g/mu): 8 (Level 8: above 90% growth control rate)
Wheat (activity level, crop damage) (wheat [1]; 32 g/mu): 8 (Level 8: above 90% growth control rate)
Alopecurus japonicas weed controlling effect (activity level) (alopecurus japonicas; 1 g/mu): 8 (Level 8: above 90% growth control rate)
Alopecurus japonicas weed controlling effect (activity level) (alopecurus japonicas; 2 g/mu): 10
Alopecurus japonicas weed controlling effect (activity level) (alopecurus japonicas; 4 g/mu): 10
Alopecurus japonicas weed controlling effect (activity level) (alopecurus japonicas; 8 g/mu): 10
weed control effect, Bidens bipinnata (level) (bidens bipinnata): 5 (Level 5: above 60% growth control rate)
weed control effect, Echinochloa (level) (echinochloa): 6 (Level 6: above 70% growth control rate)
weed control effect, Indian mallow (level) (Indian mallow): 10
weed control effect, Green foxtail (level) (foxtail): 10
weed control effect, Crab grass (level) (crab grass): 10
effect on crop, Wheat (level) (wheat [2]): 4 (Level 4: above 50% growth control rate)
effect on crop, Corn (level) (corn): 4 (Level 4: above 50% growth control rate)

effect on crop, Wheat (level) (wheat [2]): 0
SMILES: CCS(=O)(=O)Oc1c(C(=O)c2ccc(C(F)(F)F)c(N3CCCC3=O)c2Cl)c(C)nn1C [Compound 019]
effect on crop, Rice (level) (rice): 7 (Level 7: above 80% growth control rate)
Wheat (activity level, crop damage) (wheat [1]; 2 g/mu): 0
Wheat (activity level, crop damage) (wheat [1]; 4 g/mu): 0
Wheat (activity level, crop damage) (wheat [1]; 8 g/mu): 2 (Level 2: 5%-20% growth control rate)
Wheat (activity level, crop damage) (wheat [1]; 16 g/mu): 3 (Level 3: above 20% growth control rate)
Wheat (activity level, crop damage) (wheat [1]; 32 g/mu): 4 (Level 4: above 50% growth control rate)
Alopecurus japonicas weed controlling effect (activity level) (alopecurus japonicas; 1 g/mu): 1 (Level 1: below 5% growth control rate)
Alopecurus japonicas weed controlling effect (activity level) (alopecurus japonicas; 2 g/mu): 4 (Level 4: above 50% growth control rate)
Alopecurus japonicas weed controlling effect (activity level) (alopecurus japonicas; 4 g/mu): 6 (Level 6: above 70% growth control rate)
Alopecurus japonicas weed controlling effect (activity level) (alopecurus japonicas; 8 g/mu): 6 (Level 6: above 70% growth control rate)
weed control effect, Bidens bipinnata (level) (bidens bipinnata): 9 (Level 9: above 95% growth control rate)
weed control effect, Echinochloa (level) (echinochloa): 9 (Level 9: above 95% growth control rate)
weed control effect, Indian mallow (level) (Indian mallow): 10
weed control effect, Green foxtail (level) (foxtail): 10
weed control effect, Rorippa indica (level) (rorippa indica): 9 (Level 9: above 95% growth control rate)
weed control effect, Crab grass (level) (crab grass): 9 (Level 9: above 95% growth control rate)

Source: US11076594B2, “Pyrazolone compound or salt thereof, preparation method therefor, herbicide composition and use thereof” (QINGDAO KINGAGROOT CHEMICAL COMPOUNDS CO., LTD., priority 2015, dated 2021)
